9 molecules from PubChem BioAssay (NCI) can be followed below.

Values joined by “and” are separate entries in the source; they are usually repeats but may differ in a detail not shown here. Equal entries are not always repeated.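 Five concentrations, 48 hours, 96-well plates. GI50: concentration for 50% inhibition of growth. TGI marks complete inhibition of growth.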

Test systems include A498 renal; HCC-2998 colon; HT29 colon; IGROV1 ovarian; NCI-H460 lung; OVCAR-4 ovarian; SF-295 CNS; SF-539 CNS; SK-OV-3 ovarian; UACC-257 melanoma.
Common to all, as to experiment: NCI tumour cell line growth inhibition, 48 h

Turning to `CCCCCCCCCCCCCCCCCCCCCC(=O)Nc1ccn(C2OC(CO)C(O)C2O)c(=O)n1` (centres undefined), the TGI in the test with A498 renal, with HCC-2998 colon, in the test with HT29 colon, in the test with IGROV1 ovarian, with NCI-H460 lung and in the test on OVCAR-4 ovarian was more than 100 µM in each case. Moreover, the TGI with SF-295 CNS, in the test on SF-539 CNS, in the test on SK-OV-3 ovarian and in the test with UACC-257 melanoma was more than 100 µM throughout.
Turning to `CCCCN(Cc1ccc(F)cc1)c1ccc(CO)c(Cl)c1`, the GI50 in the test with A498 renal was 0.0543 µM; in the test on HCC-2998 colon it was 12.4 µM; with HT29 colon it was 13.7 µM; in the test on IGROV1 ovarian, 0.677 µM; in the test on NCI-H460 lung, 2.46 µM; in the test with OVCAR-4 ovarian, 2.54 µM. The GI50 in the test on SF-295 CNS is 3.96 µM; in the test with SF-539 CNS, 17.7 µM; in the test with SK-OV-3 ovarian, 15 µM; with UACC-257 melanoma, 0.862 µM. The TGI in the test with A498 renal worked out at 0.208 µM; in the test on HCC-2998 colon, 26.7 µM; in the test with HT29 colon it was 29.1 µM; in the test on IGROV1 ovarian, 3.49 µM; with NCI-H460 lung it was 13.4 µM; with OVCAR-4 ovarian, 13.6 µM. Further, the TGI was 17.2 µM with SF-295 CNS, 32.6 µM in the test with SF-539 CNS, 28.2 µM with SK-OV-3 ovarian and 3.75 µM in the test on UACC-257 melanoma.
As for `COc1cc(-c2cn(-c3ccc(Cl)cc3)c(C)c2C(=O)C(F)(F)F)cc(OC)c1OC`, the GI50 in the test with A498 renal is 27.2 µM; in the test on HCC-2998 colon it was more than 100 µM; in the test with HT29 colon, 73.2 µM; in the test on IGROV1 ovarian, more than 100 µM; in the test with NCI-H460 lung, 33.4 µM; in the test with OVCAR-4 ovarian, 25.5 µM. Also, the GI50 in the test on SF-295 CNS was more than 100 µM; in the test on SF-539 CNS, more than 100 µM; with SK-OV-3 ovarian, more than 100 µM; in the test on UACC-257 melanoma it was 14.1 µM. The TGI in the test with A498 renal, in the test with HCC-2998 colon, in the test on HT29 colon, with IGROV1 ovarian, with NCI-H460 lung and with OVCAR-4 ovarian was more than 100 µM each time. Besides, the TGI with SF-295 CNS, with SF-539 CNS, with SK-OV-3 ovarian and in the test with UACC-257 melanoma was more than 100 µM each time.
`CSc1nc2c(nc(N)n2C2OCC(O)C(O)C2O)c(=O)n1C` (centres undefined): the TGI with A498 renal, in the test with HCC-2998 colon, in the test on HT29 colon, with IGROV1 ovarian, with NCI-H460 lung and in the test with OVCAR-4 ovarian was more than 100 µM throughout. Besides, the TGI with SF-295 CNS, with SF-539 CNS, in the test on SK-OV-3 ovarian and in the test on UACC-257 melanoma was more than 100 µM in each case.
Consider `CN(CCOc1ccc(C#N)cc1)CCOc1ccc(C#N)cc1`, for which the GI50 was 14.8 µM with A498 renal; more than 100 µM with HCC-2998 colon; more than 100 µM in the test with HT29 colon; 1.66 µM in the test with IGROV1 ovarian; more than 100 µM in the test on NCI-H460 lung; 67.5 µM with OVCAR-4 ovarian. Moreover, the GI50 was 17.3 µM with SF-295 CNS, more than 100 µM with SF-539 CNS, more than 100 µM in the test with SK-OV-3 ovarian and 28.9 µM in the test on UACC-257 melanoma. Besides, the TGI with A498 renal is more than 100 µM; with HCC-2998 colon, more than 100 µM; with HT29 colon it was more than 100 µM; with IGROV1 ovarian, 24.7 µM; with NCI-H460 lung, more than 100 µM; in the test on OVCAR-4 ovarian it was more than 100 µM. For the same molecule, the TGI with SF-295 CNS, in the test on SF-539 CNS, in the test with SK-OV-3 ovarian and with UACC-257 melanoma was more than 100 µM in each case.
Take `CN(C)CCCN1CCc2c([nH]c3ccccc23)C1c1cccnc1` (centres undefined): the TGI in the test on A498 renal, in the test on HCC-2998 colon, in the test on HT29 colon, in the test on IGROV1 ovarian, in the test with NCI-H460 lung and in the test on OVCAR-4 ovarian was more than 100 µM throughout. For the same molecule, the TGI with SF-295 CNS, with SF-539 CNS, in the test with SK-OV-3 ovarian and in the test with UACC-257 melanoma was more than 100 µM throughout.
In the case of `CC1C(=O)C(C)C(c2ccccc2)N(N=O)C1c1ccccc1` (centres undefined), the TGI was 696 µM with A498 renal; more than 1000 µM with HCC-2998 colon; more than 833 µM in the test with HT29 colon; more than 673 µM with IGROV1 ovarian; more than 1000 µM in the test on NCI-H460 lung; more than 661 µM in the test on OVCAR-4 ovarian. For the same molecule, the TGI in the test with SF-295 CNS was 498 µM; in the test with SF-539 CNS it was > 79 µM and 310 µM; with SK-OV-3 ovarian, > 83.8 µM and 472 µM; in the test with UACC-257 melanoma, more than 897 µM. In addition, the GI50 with HCC-2998 colon was more than 1000 µM; in the test on IGROV1 ovarian, 216 µM; in the test with OVCAR-4 ovarian, more than 378 µM; in the test on SF-295 CNS, 181 µM; with SF-539 CNS, more than 50.3 µM; with SK-OV-3 ovarian it was 103 µM.
With `Fc1ccc2[nH]c3c(NCCCN4CCOCC4)ncnc3c2c1`, the GI50 was 28.1 µM with A498 renal; 61.4 µM in the test with HCC-2998 colon; 29 µM in the test with HT29 colon; 49.1 µM with IGROV1 ovarian; 38.5 µM with NCI-H460 lung; 65.8 µM in the test with OVCAR-4 ovarian. For the same molecule, the GI50 in the test with SF-295 CNS was 61.2 µM; in the test with SF-539 CNS, 21.3 µM; with SK-OV-3 ovarian, more than 100 µM. The TGI in the test with A498 renal, in the test on HCC-2998 colon, in the test on HT29 colon, with IGROV1 ovarian, with NCI-H460 lung and in the test on OVCAR-4 ovarian was more than 100 µM each time. Besides, the TGI was more than 100 µM with SF-295 CNS, 62.7 µM in the test on SF-539 CNS and more than 100 µM with SK-OV-3 ovarian.
Take `Clc1nc(Cl)c2ncn(Cc3ccc(COc4cccc(OCc5ccc(Cn6cnc7c(Cl)nc(Cl)nc76)cc5)c4)cc3)c2n1`: the GI50 is 39.2 µM in the test with A498 renal; 17.9 µM in the test with HCC-2998 colon; more than 100 µM in the test on HT29 colon; 69.4 µM in the test on IGROV1 ovarian; more than 100 µM in the test with NCI-H460 lung; 15.1 µM in the test on OVCAR-4 ovarian. Besides, the GI50 was 98.4 µM with SF-295 CNS, more than 100 µM in the test with SF-539 CNS, more than 100 µM in the test on SK-OV-3 ovarian and 24.9 µM in the test on UACC-257 melanoma. For the same molecule, the TGI was more than 100 µM with A498 renal; 35.8 µM in the test on HCC-2998 colon; more than 100 µM in the test on HT29 colon; more than 100 µM with IGROV1 ovarian; more than 100 µM in the test with NCI-H460 lung; more than 100 µM in the test with OVCAR-4 ovarian. Besides, the TGI with SF-295 CNS, in the test on SF-539 CNS, with SK-OV-3 ovarian and in the test with UACC-257 melanoma was more than 100 µM throughout.
